Source: patent US9113629B2, “4-amino-6-(4-substituted-phenyl)-picolinates and 6-amino-2-(4-substituted-phenyl)-pyrimidine-4-carboxylates and their use as herbicides” (DOW AGROSCIENCES LLC, priority 2013, dated 2015)

Legend:
[1] = tested on: MATSS: scented mayweed (Matricaria chamomilla), pineappleweed (Matricaria matricarioides); assay: Post-emergent Test III, herbicidal activity in wheat and barley; format: in vivo; settings: for pest or weed control at 35 g/ha / pest or weed control at 70 g/ha / pest or weed control at 140 g/ha: Matricaria chamomilla, post-emergence, 504 h, read-out: Visual Growth Reduction (%) 21 Days After Application MATSS; for pest or weed control at 35 g/ha: 35 g ai/ha; for pest or weed control at 70 g/ha: 70 g ai/ha; for pest or weed control at 140 g/ha: 140 g ai/ha; for GR50 MATSS / GR80 MATSS: probit analysis, 21 days after application; for GR50 MATSS: dose for growth reduction of 50 percent; for GR80 MATSS: dose for growth reduction of 80 percent
Outline: (§1)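 GR20, GR50, GR80 and GR90 come from probit analysis of visual injury scores (0 = none, 100 = complete kill) taken 21 d after treatment. Foliar application was by track sprayer delivering 187 L/ha at five rates, from high down to 1/16×, onto greenhouse plants at the 2–3 leaf stage, with solvent-blank controls.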

[2] = tested on: TRZSS: wheat, including spring and winter (Triticum aestivum); assay: as above; format: in vivo; settings: for pest or weed control at 35 g/ha / pest or weed control at 70 g/ha / pest or weed control at 140 g/ha: Triticum aestivum, post-emergence, 504 h, read-out: Visual Growth Reduction (%) 21 Days After Application TRZSS; for pest or weed control at 35 g/ha: 35 g ai/ha; for pest or weed control at 70 g/ha: 70 g ai/ha; for pest or weed control at 140 g/ha: 140 g ai/ha; for GR20 TRZSS: probit analysis, dose for growth reduction of 20 percent, 21 days after application, crop
Outline: as §1

[3] = tested on: APESV: bentgrass (Apera spica-venti); assay: as above; format: in vivo; settings: for pest or weed control at 35 g/ha / pest or weed control at 70 g/ha / pest or weed control at 140 g/ha: Apera spica-venti, post-emergence, 504 h, read-out: Visual Growth Reduction (%) 21 Days After Application APESV; for pest or weed control at 35 g/ha: 35 g ai/ha; for pest or weed control at 70 g/ha: 70 g ai/ha; for pest or weed control at 140 g/ha: 140 g ai/ha; for GR50 APESV / GR80 APESV: probit analysis, 21 days after application; for GR50 APESV: dose for growth reduction of 50 percent; for GR80 APESV: dose for growth reduction of 80 percent
Outline: as §1

[4] = as above; format: in vivo, Lolium multiflorum, Lolium rigidum; settings: Lolium multiflorum, post-emergence, 504 h, read-out: Visual Growth Reduction (%) 21 Days After Application LOLSS; for pest or weed control at 35 g/ha: 35 g ai/ha; for pest or weed control at 70 g/ha: 70 g ai/ha; for pest or weed control at 140 g/ha: 140 g ai/ha
Outline: as §1

[5] = tested on: SETVI: green foxtail (Setaria viridis); assay: as above; format: in vivo; settings: for pest or weed control at 35 g/ha / pest or weed control at 70 g/ha / pest or weed control at 140 g/ha: Setaria viridis, post-emergence, 504 h, read-out: Visual Growth Reduction (%) 21 Days After Application SETVI; for pest or weed control at 35 g/ha: 35 g ai/ha; for pest or weed control at 70 g/ha: 70 g ai/ha; for pest or weed control at 140 g/ha: 140 g ai/ha; for GR50 SETVI / GR80 SETVI: probit analysis, 21 days after application; for GR50 SETVI: dose for growth reduction of 50 percent; for GR80 SETVI: dose for growth reduction of 80 percent
Outline: as §1

[6] = tested on: KCHSC: kochia (Kochia scoparia); assay: as above; format: in vivo; settings: for pest or weed control at 35 g/ha / pest or weed control at 70 g/ha / pest or weed control at 140 g/ha: Bassia scoparia, post-emergence, 504 h, read-out: Visual Growth Reduction (%) 21 Days After Application KCHSC; for pest or weed control at 35 g/ha: 35 g ai/ha; for pest or weed control at 70 g/ha: 70 g ai/ha; for pest or weed control at 140 g/ha: 140 g ai/ha; for GR50 KCHSC / GR80 KCHSC: probit analysis, 21 days after application; for GR50 KCHSC: dose for growth reduction of 50 percent; for GR80 KCHSC: dose for growth reduction of 80 percent
Outline: as §1

[7] = tested on: HORSS: barley, including spring and winter (Hordeum vulgare); assay: as above; format: in vivo; settings: for pest or weed control at 35 g/ha / pest or weed control at 70 g/ha / pest or weed control at 140 g/ha: Hordeum vulgare, post-emergence, 504 h, read-out: Visual Growth Reduction (%) 21 Days After Application HORSS; for pest or weed control at 35 g/ha: 35 g ai/ha; for pest or weed control at 70 g/ha: 70 g ai/ha; for pest or weed control at 140 g/ha: 140 g ai/ha; for GR20 HORSS: probit analysis, dose for growth reduction of 20 percent, 21 days after application, crop
Outline: as §1

[8] = tested on: LOLSS: ryegrass including, Italian ryegrass (Lolium multiflorum), rigid ryegrass (Lolium rigidum), annual ryegrass (Lolium multiflorum subsp. Gaudini); assay: as above; format: in vivo; settings: probit analysis, 21 days after application; for GR50 LOLSS: dose for growth reduction of 50 percent; for GR80 LOLSS: dose for growth reduction of 80 percent
Outline: as §1

SMILES	pest or weed control at 35 g/ha [1] [%]	pest or weed control at 70 g/ha [1] [%]	pest or weed control at 140 g/ha [1] [%]	GR50 MATSS [1] [g ai/ha]	GR80 MATSS [1] [g ai/ha]	pest or weed control at 35 g/ha [2] [%]	pest or weed control at 70 g/ha [2] [%]	pest or weed control at 140 g/ha [2] [%]	GR20 TRZSS [2] [g ai/ha]	pest or weed control at 35 g/ha [3] [%]	pest or weed control at 70 g/ha [3] [%]	pest or weed control at 140 g/ha [3] [%]	GR50 APESV [3] [g ai/ha]	GR80 APESV [3] [g ai/ha]	pest or weed control at 35 g/ha [4] [%]	pest or weed control at 70 g/ha [4] [%]	pest or weed control at 140 g/ha [4] [%]	pest or weed control at 35 g/ha [5] [%]	pest or weed control at 70 g/ha [5] [%]	pest or weed control at 140 g/ha [5] [%]	further results
COC(=O)c1nc(-c2ccc(C#N)cc2)c(F)c(N)c1Cl [Compound 142]	0 to 29	0 to 29	30 to 44	>140	>140	0 to 29	0 to 29	45 to 59	>140	0 to 29	0 to 29	0 to 29	>140	>140	0 to 29	0 to 29	0 to 29	0 to 29	0 to 29	0 to 29	GR50 SETVI [5]: >140 g ai/ha; GR80 SETVI [5]: >140 g ai/ha; pest or weed control at 35 g/ha [6]: 45 to 59%; pest or weed control at 70 g/ha [6]: 60 to 74%; pest or weed control at 140 g/ha [6]: 60 to 74%; GR50 KCHSC [6]: 17 g ai/ha; GR80 KCHSC [6]: >140 g ai/ha; pest or weed control at 35 g/ha [7]: 0 to 29%; pest or weed control at 70 g/ha [7]: 0 to 29%; pest or weed control at 140 g/ha [7]: 0 to 29%; GR20 HORSS [7]: 57 g ai/ha; GR50 LOLSS [8]: >140 g ai/ha; GR80 LOLSS [8]: >140 g ai/ha
Nc1c(F)c(-c2ccc(OC(F)F)cc2)nc(C(=O)O)c1Cl [Compound 143]	0 to 29	60 to 74	60 to 74	67	>140	60 to 74	75 to 84	75 to 84	0	60 to 74	60 to 74	75 to 84	31	129	0 to 29	30 to 44	45 to 59	45 to 59	45 to 59	60 to 74	GR50 SETVI [5]: 52 g ai/ha; GR80 SETVI [5]: >140 g ai/ha; pest or weed control at 35 g/ha [6]: 30 to 44%; pest or weed control at 70 g/ha [6]: 30 to 44%; pest or weed control at 140 g/ha [6]: 45 to 59%; GR50 KCHSC [6]: >140 g ai/ha; GR80 KCHSC [6]: >140 g ai/ha; pest or weed control at 35 g/ha [7]: 60 to 74%; pest or weed control at 70 g/ha [7]: 75 to 84%; pest or weed control at 140 g/ha [7]: 85 to 94%; GR20 HORSS [7]: 2 g ai/ha; GR50 LOLSS [8]: 116 g ai/ha; GR80 LOLSS [8]: >140 g ai/ha
COC(=O)c1nc(-c2ccc(Br)c(F)c2F)cc(N)c1Cl [Compound 114, methyl 4-amino-6-(4-bromo-2,3-difluorophenyl)-3-chloropicolinate]	0 to 29	0 to 29	0 to 29	>140	>140	30 to 44	45 to 59	45 to 59	16	0 to 29	0 to 29	0 to 29	>140	>140	0 to 29	0 to 29	0 to 29	0 to 29	0 to 29	0 to 29	GR50 SETVI [5]: >140 g ai/ha; GR80 SETVI [5]: >140 g ai/ha; pest or weed control at 35 g/ha [6]: 60 to 74%; pest or weed control at 70 g/ha [6]: 60 to 74%; pest or weed control at 140 g/ha [6]: 75 to 84%; GR50 KCHSC [6]: 3 g ai/ha; GR80 KCHSC [6]: >140 g ai/ha; pest or weed control at 35 g/ha [7]: 0 to 29%; pest or weed control at 70 g/ha [7]: 30 to 44%; pest or weed control at 140 g/ha [7]: 30 to 44%; GR20 HORSS [7]: 42 g ai/ha; GR50 LOLSS [8]: >140 g ai/ha; GR80 LOLSS [8]: >140 g ai/ha
